As a reminder, the IC50 is the concentration at which inhibition is half-maximal.

Peptide text beside a SMILES is read from it.

Experiment [1] concerns PMA-differentiated THP-1 cells. In kind it is cell-based, human. Particulars: 3 h. Here is the method: (§1) The ability of [SRSRY] peptide to affect THP-1 cell migration was analyzed in Boyden chambers using 10 nM fMLF or 10 nM SRSRY as chemoattractants. […] Inhibitory effect of [SRSRY] is dose-dependent, it starts in the high fM range, it seems to level off in the μM range and reaches an overall 50% reduction at 10 pM (Fig 4B). […] The mechanisms by which monocytes move when subjected to a chemoattractant gradient, involve changes in cytoskeletal organization, which provide both protrusive and contractile forces necessary for cell migration. To gain some insights into the cellular effects exerted by peptide [SRSRY], PMA-differentiated THP-1 cells were grown adherent onto a glass slide, exposed to diluents (CTL), 10 nM fMLF gradient plus/minus 10 nM [SRSRY] or 10 nM [RSSYR] in a DUNN chamber for 6 hours as described, and then stained with rhodamine-phalloidin. A total of 100 cells/sample that translocated to the area corresponding to the ring separating the inner and outer chambers were counted and their cytoskeletal organization examined with a fluorescence-inverted microscope. […] Conversely, the addition of peptide [SRSRY] to the fMLF gradient reduced cell elongation and alignment with the appearance of F-actin linear distribution along the plasma membranes in the 60% of cell population (Fig 4C). In order to verify whether the inhibitory effect of [SRSRY] also occurs on primary monocytes and/or macrophages, human monocytes and macrophages were subjected to cell migration assays in Boyden and DUNN chambers, respectively. […] Unlike [RSSYR], 10 nM [SRSRY] reduced both fMLF- and SRSRY- directed monocyte migration by 50% and 49%, respectively. Next, primary macrophages were subjected to cell migration assay in DUNN chamber as above described. After 6 hours incubation, a total of 100 cells/sample that translocated to the area corresponding to the ring separating the inner and outer chambers were counted. Macrophage exposure to 10 nM fMLF elicited a considerable cell migration, reaching 230% of the basal cell migration (CTL), that was unchanged by 10 nM [[…]). […] These findings indicate that unlike linear SRSRY, the cyclic form of the chemotactic sequence of uPAR inhibits monocyte motility and prevents cytoskeletal re-organization occurring during migration of macrophages. {[…]] inhibits migration of monocytes and macrophages in a dose-dependent manner causing a marked inhibition of fMLF-dependent cytoskeletal re-organization. A. THP-1 cells (1x10^5 cells/well) were allowed to migrate for 90 minutes at 37°C, 5% CO2 in Boyden chambers toward 10 nM fMLF, or 10 nM SRSRY in the presence of diluents (None), 10 nM [RSSYR] or 10 nM [SRSRY]. […] Data are expressed as the means ± SD of three independent experiments, performed in duplicate. *Statistical significance against None with p<0.001. B. THP-1 and PMA-stimulated THP-1 cell migration toward 10 nM fMLF plus increasing concentrations of [SRSRY] in Boyden chambers. The extent of cell migration was expressed as a percentage of the net fMLF-dependent cell migration, considered as 100%. Data are expressed as the means ± SD of three independent experiments, performed in duplicate. C. Representative images of PMA-stimulated THP-1 cells allowed to migrate in a DUNN chamber toward diluents (CTL), or a fMLF chemotactic gradient, in the absence (None) or presence of 10 nM [SRSRY] or [RSSYR] peptides and stained with rhodamine-phalloidin. Scale bar: 10 μm. Original magnifications: 630x. D-E. Primary monocytes (1x10^5 cells/well) were allowed to migrate for 90 minutes at 37°C, 5% CO2 in Boyden chambers toward 10 nM fMLF (D), or 10 nM […]) in the presence of diluents (None), 10 nM [RSSYR] or 10 nM [SRSRY]. […] Data are expressed as the means ± SD of three independent experiments, performed in duplicate. *Statistical significance against None with p<0.001; **Statistical significance against None with p<0.0001. […]

In another experiment the test system is THP-1 cells. It is filed as cell-based, human. On the procedure:
as §1

In the next experiment the test system is primary macrophages. In words: Primary macrophage migration in DUNN chamber. It is filed as cell-based, human. Particulars: 10 nM peptide added to 10 nM fMLF gradient, 6 hours. Here is the method: The ability of [SRSRY] peptide to affect THP-1 cell migration was analyzed in Boyden chambers using 10 nM fMLF or 10 nM SRSRY as chemoattractants. […] Inhibitory effect of [SRSRY] is dose-dependent, it starts in the high fM range, it seems to level off in the μM range and reaches an overall 50% reduction at 10 pM (Fig 4B). […] The mechanisms by which monocytes move when subjected to a chemoattractant gradient, involve changes in cytoskeletal organization, which provide both protrusive and contractile forces necessary for cell migration. […] A total of 100 cells/sample that translocated to the area corresponding to the ring separating the inner and outer chambers were counted and their cytoskeletal organization examined with a fluorescence-inverted microscope. […] After 6 hours incubation, a total of 100 cells/sample that translocated to the area corresponding to the ring separating the inner and outer chambers were counted. […] Data are expressed as the means ± SD of three independent experiments, performed in duplicate. *Statistical significance against None with p<0.001. […] The extent of cell migration was expressed as a percentage of the net fMLF-dependent cell migration, considered as 100%. Data are expressed as the means ± SD of three independent experiments, performed in duplicate. […]

In a further experiment the test system is RBL-2H3/ETFR cells. In words: RBL-2H3/ETFR cell proliferation, xCELLigence. In kind it is cell-based, rat. The conditions noted are these: 10 μM peptide, up to 90 hours, medium replaced every 24 hours, quadruplicate.
Setting [2] is: 10 nM peptide, 90 minutes, Boyden chamber.

With `N=C(N)NCCC[C@@H]1NC(=O)[C@H](CO)NC(=O)[C@H](Cc2ccc(O)cc2)NC(=O)[C@H](CCCNC(=N)N)NC(=O)[C@H](CO)NC1=O` [[SRSRY], [Ser-Arg-Ser-Arg-Tyr]] (cyclo(RSRYS)), the IC50 (in experiment [1]; in the experiment on THP-1 cells (6 h)) was 0.01 nM each time. Moreover, the “reduction of THP-1 monocyte migration toward 10 nM SRSRY” value with THP-1 cells (setting [2]) is recorded as 68%. In addition, the “reduction of THP-1 monocyte migration toward 10 nM fMLF” value in the experiment on THP-1 cells (setting [2]) worked out at 58%. In addition, the “effect on fMLF-directed migration of primary macrophages” value with primary macrophages was “reduced migration of primary macrophages to the basal level”. Further, the RBL-2H3/ETFR cell growth entry in the experiment with RBL-2H3/ETFR cells is listed as “did not modify cell growth up to 90 hours”.

Values taken from PMC4418665, “Cyclization of the Urokinase Receptor-Derived Ser-Arg-Ser-Arg-Tyr Peptide Generates a Potent Inhibitor of Trans-Endothelial Migration of Monocytes” (PLoS ONE, 2015).
